Some test systems named below: ACHN renal; HCT-15 colon; HL-60(TB) leukemia; KM12 colon; M14 melanoma; NCI-H460 lung; OVCAR-5 ovarian; SK-MEL-28 melanoma; SN12C renal; SW-620 colon.
Common to all, as to test: NCI tumour cell line growth inhibition, 48 h

Several values for one entry are separate records, joined by “and”; a condition that tells them apart may be missing. Equal entries are not always repeated.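 Tested at 5 concentrations; 48 h exposure; 96-well plates; endpoints linearly interpolated, else capped at highest concentration. GI50 is the concentration that inhibits growth by half. TGI: concentration producing complete growth inhibition.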

With `O=C(O)C1CCCCC1C(=O)O.[NH-]C1CCC1.[NH2-].[Pt+2]` (centres undefined), the GI50 was 16.4 µM in the assay on ACHN renal; 17.3 µM in the assay on HCT-15 colon; 5.98 µM in the assay with HL-60(TB) leukemia; above 100 µM in the assay on KM12 colon; 12.6 µM with M14 melanoma; 22.7 µM in the assay with NCI-H460 lung. Also, the GI50 is 18.3 µM in the assay with OVCAR-5 ovarian, 15.9 µM in the assay with SK-MEL-28 melanoma, 11.8 µM in the assay on SN12C renal and 14.4 µM in the assay with SW-620 colon. For the same compound, the TGI in the assay with ACHN renal was 31.3 µM; in the assay with HCT-15 colon it was 34.5 µM; in the assay with HL-60(TB) leukemia, 52.8 µM; with KM12 colon, above 100 µM; in the assay on M14 melanoma, 27.3 µM; in the assay with NCI-H460 lung, above 100 µM. Moreover, the TGI came to 34 µM in the assay on OVCAR-5 ovarian, 31.4 µM in the assay with SK-MEL-28 melanoma, 26.7 µM in the assay with SN12C renal and 44.5 µM in the assay with SW-620 colon.
For the compound `O=C(O)c1ccc2c(c1)CCCC(c1ccc(Cl)cc1Cl)=C2c1ccc(O[C@H]2CCN(CCCF)C2)cc1`, the GI50 with ACHN renal was 11.7 µM; in the assay with HCT-15 colon, 6.38 µM; with HL-60(TB) leukemia, 7.41 µM; in the assay on KM12 colon, 7.29 µM; in the assay on M14 melanoma it was 13.2 µM; with NCI-H460 lung, 9.27 µM. Besides, the GI50 in the assay on OVCAR-5 ovarian is 17.4 µM; in the assay on SK-MEL-28 melanoma it was 11.5 µM; with SN12C renal, 15.2 µM; with SW-620 colon it was 14.3 µM. Besides, the TGI turned out to be 24.3 µM in the assay with ACHN renal; 20.1 µM in the assay on HCT-15 colon; 22.7 µM in the assay on HL-60(TB) leukemia; 20.3 µM in the assay on KM12 colon; 28.7 µM in the assay with M14 melanoma; 23.8 µM in the assay with NCI-H460 lung. For the same compound, the TGI was 32.1 µM in the assay on OVCAR-5 ovarian, 25.1 µM in the assay with SK-MEL-28 melanoma, 31 µM in the assay on SN12C renal and 28.9 µM in the assay on SW-620 colon.
`Cc1ccc(-c2cc(-c3ccccc3)c(C#N)c(=O)n2C2OC(CO)C(O)C(O)C2O)cc1` (centres undefined): the TGI with ACHN renal, in the assay with HCT-15 colon, in the assay with HL-60(TB) leukemia, in the assay on KM12 colon, with M14 melanoma and in the assay on NCI-H460 lung was above 100 µM throughout. Besides, the TGI in the assay with OVCAR-5 ovarian, in the assay on SK-MEL-28 melanoma, in the assay with SN12C renal and in the assay with SW-620 colon was above 100 µM throughout.
Consider `COc1cc2ncnc(Nc3ccc(F)c(Cl)c3)c2cc1NC(=O)/C=C/CN1CCCCC1`, for which the GI50 with ACHN renal is < 0.01 µM and 0.00256 µM; in the assay on HCT-15 colon it was 1.07 µM and 1.12 µM; in the assay with HL-60(TB) leukemia, 1.65 µM and 0.814 µM; in the assay with KM12 colon, 2.17 µM and 2.78 µM; in the assay on M14 melanoma, 1.72 µM and 1.61 µM; in the assay on NCI-H460 lung it was 2.18 µM and 2.4 µM. Besides, the GI50 was 1.19 µM and 1.17 µM in the assay on OVCAR-5 ovarian; 1.79 µM and 1.65 µM in the assay with SK-MEL-28 melanoma; 0.429 µM and 0.389 µM in the assay with SN12C renal; 1.84 µM and 1.64 µM in the assay with SW-620 colon. Further, the TGI with ACHN renal is 1.76 µM and 1.48 µM; in the assay on HCT-15 colon it was 4.6 µM and 3.81 µM; in the assay with HL-60(TB) leukemia, 3.64 µM and 3.11 µM; in the assay with KM12 colon, 4.88 µM and > 9.06 µM; with M14 melanoma it was 3.4 µM and 3.26 µM; in the assay with NCI-H460 lung it was 6.22 µM and 7 µM. Also, the TGI is 8.45 µM and > 8.15 µM with OVCAR-5 ovarian; 3.36 µM and 3.14 µM with SK-MEL-28 melanoma; 3.35 µM and 2.3 µM in the assay with SN12C renal; 4.42 µM and 3.54 µM in the assay with SW-620 colon.
`COc1ccc(-c2ccc(-c3ccc(C(=N)N)cn3)o2)cc1`: the GI50 with ACHN renal is 6.56 µM; with HCT-15 colon, 4.62 µM; with HL-60(TB) leukemia it was 2.14 µM; in the assay with KM12 colon, 4.41 µM; with M14 melanoma it was 2.12 µM; in the assay with NCI-H460 lung, 3.69 µM. For the same compound, the GI50 in the assay with OVCAR-5 ovarian is 10.9 µM; with SK-MEL-28 melanoma it was 8.23 µM; in the assay on SN12C renal, 8.01 µM; with SW-620 colon it was 4.05 µM. Moreover, the TGI in the assay with ACHN renal turned out to be 19.6 µM; in the assay with HCT-15 colon, 17.7 µM; in the assay on HL-60(TB) leukemia, 5.7 µM; in the assay on KM12 colon it was 15.5 µM; in the assay on M14 melanoma it was 4.68 µM; in the assay on NCI-H460 lung, 14 µM. Also, the TGI turned out to be 23.7 µM in the assay on OVCAR-5 ovarian, 20.9 µM with SK-MEL-28 melanoma, 22.5 µM with SN12C renal and 16 µM with SW-620 colon.
As for `COc1cc2c(=O)n(CCN)c3c4cc5c(cc4ccc3c2cc1OC)OCO5`, the GI50 is 0.363 µM in the assay on ACHN renal; 0.651 µM in the assay on HCT-15 colon; 1.24 µM in the assay on HL-60(TB) leukemia; 0.913 µM with KM12 colon; 0.425 µM in the assay with M14 melanoma; 0.236 µM in the assay with NCI-H460 lung. For the same compound, the GI50 in the assay on OVCAR-5 ovarian was 1.16 µM; in the assay with SK-MEL-28 melanoma, 2.09 µM; in the assay on SN12C renal it was 0.723 µM; in the assay on SW-620 colon it was 0.23 µM. In addition, the TGI came out at 1.52 µM with ACHN renal; 2.19 µM in the assay on HCT-15 colon; 3.53 µM in the assay on HL-60(TB) leukemia; 2.47 µM in the assay with KM12 colon; 1.89 µM with M14 melanoma; 1.25 µM with NCI-H460 lung. Besides, the TGI in the assay on OVCAR-5 ovarian was 2.59 µM; in the assay on SK-MEL-28 melanoma, 6.17 µM; in the assay with SN12C renal it was 2.32 µM; in the assay with SW-620 colon it was 2.07 µM.
As for `CC1C(=O)OCC2=CCN3CCC(OC(=O)C(C)C1(C)O)C23` (centres undefined), the TGI in the assay on ACHN renal, with HCT-15 colon, in the assay with HL-60(TB) leukemia, with KM12 colon, in the assay on M14 melanoma and in the assay on NCI-H460 lung was above 100 µM each time. Further, the TGI in the assay with OVCAR-5 ovarian, in the assay on SK-MEL-28 melanoma, with SN12C renal and in the assay with SW-620 colon was above 100 µM throughout.
As for `O=C(N/N=C(/CCN1CCCC1)CC(c1ccccc1)c1c(O)c2ccccc2oc1=O)c1ccncc1` (centres undefined), the TGI is above 100 µM in the assay on ACHN renal; above 100 µM in the assay on HCT-15 colon; 84.8 µM in the assay on HL-60(TB) leukemia; above 100 µM with KM12 colon; above 100 µM with M14 melanoma; above 100 µM in the assay on NCI-H460 lung. Besides, the TGI with OVCAR-5 ovarian, with SN12C renal and in the assay on SW-620 colon was above 100 µM each time.
In the case of `N#CCCN(CCC#N)c1ccc(C(Sc2ccccc2)C(NC(=O)c2cc([N+](=O)[O-])ccc2Cl)C(=O)Sc2ccccc2)cc1` (centres undefined), the GI50 in the assay on ACHN renal is 2.81 µM; in the assay on HCT-15 colon, 2.25 µM; with HL-60(TB) leukemia, 0.416 µM; in the assay with M14 melanoma, 1.61 µM; in the assay on SK-MEL-28 melanoma, 3.24 µM; in the assay with SW-620 colon, 3.77 µM. Moreover, the TGI was 16.3 µM in the assay with ACHN renal; 11.2 µM with HCT-15 colon; 3.62 µM and 2.29 µM in the assay on HL-60(TB) leukemia; 4.07 µM in the assay on M14 melanoma; 16.8 µM in the assay on NCI-H460 lung; 11.7 µM in the assay on OVCAR-5 ovarian. Further, the TGI with SK-MEL-28 melanoma was 7.06 µM and 14.2 µM; in the assay on SN12C renal, 4.54 µM and 6.19 µM; with SW-620 colon, 14.3 µM.

The record behind these values is PubChem BioAssay (NCI).
